# Measurements taken from paper PMC7307922 (Journal of Medicinal Chemistry, 2020).
# Tests used:
# [1] = molecular target: T1, hFFA3 (Homo sapiens, UniProt O14843); experiment: biochemical; settings: for GTPγS pEC50: hFFA3, mean of ≥3 independent experiments ± standard error; for Emax: read-out: GTPγS Emax
# T1 sequence (O14843 1-346): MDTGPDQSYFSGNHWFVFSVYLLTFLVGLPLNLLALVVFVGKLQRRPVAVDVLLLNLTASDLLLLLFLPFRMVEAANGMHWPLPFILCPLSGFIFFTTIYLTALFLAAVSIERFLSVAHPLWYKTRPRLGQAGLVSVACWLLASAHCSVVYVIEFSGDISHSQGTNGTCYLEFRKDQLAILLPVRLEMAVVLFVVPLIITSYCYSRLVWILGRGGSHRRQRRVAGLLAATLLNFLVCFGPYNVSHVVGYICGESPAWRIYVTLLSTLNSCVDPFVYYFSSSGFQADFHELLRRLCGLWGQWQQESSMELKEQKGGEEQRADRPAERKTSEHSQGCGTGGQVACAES
# Protocol: (§1) The ligands were initially screened in a human FFA3-dependent [^35S]GTPγS binding assay as this assay reflects receptor-mediated activation of Gi/o proteins and is known to generally correlate well with ligand affinity.[30] Analogues of particular interest were tested further in a cAMP inhibition assay as this is an important downstream effect of Gi-activation. […] It is furthermore performed in whole cells, is more downstream, includes G protein signal amplification, and therefore better reflects a more natural ligand–receptor response.
# Membranes were isolated from Flp-In T-REx HEK293 cells treated with 100 ng/mL doxycycline to induce receptor expression. Cells were washed with ice-cold phosphate-buffered saline and removed from dishes by scraping before being centrifuged for 5 min at 4 °C, 3000 rpm. Pellets were resuspended in TE buffer (75 mM Tris–HCl, 5 mM EDTA; pH 7.5) with the addition of a protease inhibitor mixture (Roche Applied Science, West Sussex, UK). This was then homogenized with a 5 mL hand-held homogenizer and subsequently centrifuged at 1500 rpm for 5 min at 4 °C, from which the supernatant was collected and further centrifuged at 50 000 rpm for 30 min at 4 °C. The resulting pellet was resuspended in TE buffer, and the protein content was measured using a BCA protein assay kit (Pierce, Fisher Scientific, Loughborough, UK).
# Reactions were initiated with the addition of [^35S]GTPγS at 50 nCi per tube; reactions were terminated after 1 h of incubation at 25 °C by rapid filtration through GF/C glass filters using a 24-well Brandel cell harvester (Alpha Biotech, Glasgow, UK). Unbound radioligand was removed from filters by washing three times with ice-cold wash buffer (50 mM Tris–HCl, pH 7.4, and 10 mM MgCl2), and [^35S]GTPγS binding was determined by liquid scintillation spectrometry.
# [2] = molecular target: T1, hFFA3; experiment: cell-based; settings: for Emax: HEK293, read-out: cAMP Emax; for increased potency in cAMP assay versus GTPγS assay / lower potency in cAMP assay versus GTPγS assay: cAMP vs GTPγS data; for cAMP pEC50: hFFA3, compound alone, mean of ≥3 independent experiments ± standard error; for PAM pEC50: cAMP assay in the presence of 1 μM propionate
# Protocol: as §1
# HEK293 Flp-In T-Rex cells stably transfected with FFA3-eYFP receptors were incubated overnight with doxycycline to induce expression, then harvested, and cryopreserved. On the day of each experiment, cells were thawed and resuspended in stimulation buffer. Assays were carried out using a 384-well plate format with 3000 cells/well using the CisBio cAMP GS dynamic kit as per manufacturer’s protocol. Compounds were tested for the ability to inhibit 0.3 μM forskolin-induced cAMP production after co-incubation for 1 h. Reactions were measured using a PHERAstar FS plate reader (BMGLabtech, Aylesbury, UK).
# [3] = Kinetic aqueous solubility in PBS pH 7.4; format: physicochemical; settings: phosphate buffered saline, pH 7.4; read-out: Aq. solub.
# Protocol: (§2) Solubility and log D7.4 measurements were performed in accordance to the previously published procedures.[35]
# [4] = log D7.4 measurement; format: physicochemical; settings: pH 7.4; read-out: logD7.4
# Protocol: as §2
Structure (SMILES),GTPγS pEC50 [1],Emax [1] [%],Emax [2] [%],increased potency in cAMP assay versus GTPγS assay [2] [fold],cAMP pEC50 [2],PAM pEC50 [2],drop in potency on replacement of o-tolyl (1) ([1]; relative to 1) [fold],lower potency in cAMP assay versus GTPγS assay [2] [fold],EC50 [2] [µM],"PAM pEC50 (GTPγS assay) ([1]; GTPγS assay, with propionate)",solubility [3] [µM],logD at 24 h [4]
"CC1=C(C(=O)Nc2ccccc2C)C(c2ccoc2)C2=C(CCCC2=O)N1 (stereo not drawn) [Compound 2, reference compound]",5.24 ± 0.08,135,97,10,6.27 ± 0.03,,,,,,,
"CC1=C(C(=O)Nc2ccccc2C)C(c2ccccc2)C2=C(CCCC2=O)N1 (stereo not drawn) [Compound 3, 2-Methyl-5-oxo-4-phenyl-N-(o-tolyl)-1,4,5,6,7,8-hexahydroquinoline-3-carboxamide]",4.75 ± 0.11,103,98,14,5.91 ± 0.04,,,,,,,
"CC1=C(C(=O)Nc2ccccc2C)C(c2cccs2)C2=C(CCCC2=O)N1 (stereo not drawn) [Compound 4, 2-Methyl-5-oxo-4-(thiophen-2-yl)-N-(o-tolyl)-1,4,5,6,7,8-hexahydroquinoline-3-carboxamide]",5.52 ± 0.18,111,102,,5.79 ± 0.04,5.92 ± 0.04,,,,,,
"CC1=C(C(=O)Nc2ccccc2C)C(c2cccc(Br)c2)C2=C(CCCC2=O)N1 (stereo not drawn) [Compound 6, 4-(3-Bromophenyl)-2-methyl-5-oxo-N-(o-tolyl)-1,4,5,6,7,8-hexahydroquinoline-3-carboxamide]",5.49 ± 0.08,89,99,,5.87 ± 0.06,,,,,,,
"CC1=C(C(=O)Nc2ccccc2C)C(c2ccc(Br)cc2)C2=C(CCCC2=O)N1 (stereo not drawn) [Compound 7, 4-(4-Bromophenyl)-2-methyl-5-oxo-N-(o-tolyl)-1,4,5,6,7,8-hexahydroquinoline-3-carboxamide]",5.43 ± 0.09,85,103,,5.79 ± 0.03,,,,,,,
"CC1=C(C(=O)Nc2ccccc2C)C(c2cccc(C(F)(F)F)c2)C2=C(CCCC2=O)N1 (stereo not drawn) [Compound 8, 2-Methyl-5-oxo-N-(o-tolyl)-4-(3-(trifluoromethyl)phenyl)-1,4,5,6,7,8-hexahydroquinoline-3-carboxamide]",4.81 ± 0.13,118,98,,5.55 ± 0.05,,,,,,,
"CC1=C(C(=O)Nc2ccccc2C)C(c2ccc(C(F)(F)F)cc2)C2=C(CCCC2=O)N1 (stereo not drawn) [Compound 9, 2-Methyl-5-oxo-N-(o-tolyl)-4-(4-(trifluoromethyl)phenyl)-1,4,5,6,7,8-hexahydroquinoline-3-carboxamide]",5.12 ± 0.13,116,101,,5.31 ± 0.06,,,,,,,
"CC1=C(C(=O)Nc2ccccc2C)C(c2ccc(C)cc2)C2=C(CCCC2=O)N1 (stereo not drawn) [Compound 10, 2-Methyl-5-oxo-N-(o-tolyl)-4-(p-tolyl)-1,4,5,6,7,8-hexahydroquinoline-3-carboxamide]",4.52 ± 0.11,88,97,,5.44 ± 0.04,,,,,,,
"CCc1ccc(C2C(C(=O)Nc3ccccc3C)=C(C)NC3=C2C(=O)CCC3)cc1 (stereo not drawn) [Compound 11, 4-(4-Ethylphenyl)-2-methyl-5-oxo-N-(o-tolyl)-1,4,5,6,7,8-hexahydroquinoline-3-carboxamide]",4.08 ± 0.26,143,96,,5.17 ± 0.08,,,,,,,
CC1=C(C(=O)Nc2ccccc2)C(c2ccco2)C2=C(CCCC2=O)N1 (stereo not drawn) [Compound 12],5.11 ± 0.12,81,97,,5.45 ± 0.03,,> 3,,,,,
"CC1=C(C(=O)Nc2cccc(C)c2)C(c2ccco2)C2=C(CCCC2=O)N1 (stereo not drawn) [Compound 13, 4-(Furan-2-yl)-2-methyl-5-oxo-N-(m-tolyl)-1,4,5,6,7,8-hexahydroquinoline-3-carboxamide]",5.34 ± 0.15,78,100,,5.80 ± 0.04,,,,,,,
"CC1=C(C(=O)Nc2ccc(C)cc2)C(c2ccco2)C2=C(CCCC2=O)N1 (stereo not drawn) [Compound 14, 4-(Furan-2-yl)-2-methyl-5-oxo-N-(p-tolyl)-1,4,5,6,7,8-hexahydroquinoline-3-carboxamide]",5.27 ± 0.12,88,100,,6.16 ± 0.03,,,,,,,
"COc1ccccc1NC(=O)C1=C(C)NC2=C(C(=O)CCC2)C1c1ccco1 (stereo not drawn) [Compound 15, 4-(Furan-2-yl)-N-(2-methoxyphenyl)-2-methyl-5-oxo-1,4,5,6,7,8-hexahydroquinoline-3-carboxamide]",4.71 ± 0.28,124,99,50,6.43 ± 0.03,,,,,,,
"CC1=C(C(=O)Nc2ccccc2C)C(CC(C)C)C2=C(CCCC2=O)N1 (stereo not drawn) [Compound 17, 4-Isobutyl-2-methyl-5-oxo-N-(o-tolyl)-1,4,5,6,7,8-hexahydroquinoline-3-carboxamide]",5.68 ± 0.13,109,109,,5.00 ± 0.06,6.28 ± 0.14,,5,,,,
"CC1=C(C(=O)Nc2cccc(C)c2C)C(CC(C)C)C2=C(CCCC2=O)N1 (stereo not drawn) [Compound 18, N-(2,3-Dimethylphenyl)-4-isobutyl-2-methyl-5-oxo-1,4,5,6,7,8-hexahydroquinoline-3-carboxamide]",5.26 ± 0.16,88,97,,4.98 ± 0.11,,,2,,,,
"CC1=C(C(=O)Nc2ccccc2I)C(CC(C)C)C2=C(CCCC2=O)N1 (stereo not drawn) [Compound 19, N-(2-Iodophenyl)-4-isobutyl-2-methyl-5-oxo-1,4,5,6,7,8-hexahydroquinoline-3-carboxamide]",5.41 ± 0.15,129,89,,,,,,2.69,,,
"CC1=C(C(=O)Nc2ccccc2Cl)C(CC(C)C)C2=C(CCCC2=O)N1 (stereo not drawn) [Compound 20, N-(2-Chlorophenyl)-4-isobutyl-2-methyl-5-oxo-1,4,5,6,7,8-hexahydroquinoline-3-carboxamide]",5.41 ± 0.13,105,94,,6.15 ± 0.06,,,,,,,
"CC1=C(C(=O)Nc2c(F)cccc2F)C(CC(C)C)C2=C(CCCC2=O)N1 (stereo not drawn) [Compound 21, N-(2,6-Difluorophenyl)-4-isobutyl-2-methyl-5-oxo-1,4,5,6,7,8-hexahydroquinoline-3-carboxamide]",4.67 ± 0.22,89,104,,4.98 ± 0.08,,,,,,,
"Cc1ccccc1NC(=O)c1c(C)nc2c(c1-c1ccco1)C(=O)CCC2 [Compound 24, 4-(Furan-2-yl)-2-methyl-5-oxo-N-(o-tolyl)-5,6,7,8-tetrahydroquinoline-3-carboxamide]",,,,,inactive and nr^c,,,,,"nr^c,d",,
"CC1=C(C(=O)Nc2cc(Cl)ccc2Cl)C(c2cncs2)C2=C(CCCC2=O)N1 (stereo not drawn) [Compound 48, N-(2,5-Dichlorophenyl)-2-methyl-5-oxo-4-(thiazol-5-yl)-1,4,5,6,7,8-hexahydroquinoline-3-carboxamide]",,,97,,5.75 ± 0.03,,,,,,1,3.23
"CC1=C(C(=O)Nc2cc(Cl)ccc2Cl)C(c2cscn2)C2=C(CCCC2=O)N1 (stereo not drawn) [Compound 49, N-(2,5-Dichlorophenyl)-2-methyl-5-oxo-4-(thiazol-4-yl)-1,4,5,6,7,8-hexahydroquinoline-3-carboxamide]",,,95,,5.71 ± 0.08,,,,,,< 1,3.28
